What was measured:
[1] = molecular target: BRD3 BD1 L/V (Homo sapiens, UniProt Q15059, L70V); assay: competitive AlphaLISA; format: binding
[2] = tested on: L/V BET bromodomains (BD1 and BD2 of BRD2, BRD3 and BRD4); assay: competitive AlphaLISA (Bio-JQ1 displacement); format: binding, human
[3] = molecular target: BRD4 BD2 L/V (Homo sapiens, UniProt O60885, L387V); assay: competitive AlphaLISA; format: binding
[4] = molecular target: BRD2 BD2 L/V (Homo sapiens, UniProt P25440, L383V); assay: competitive AlphaLISA; format: binding
BRD2 BD2 L/V, sequence (P25440 344-455 L383V): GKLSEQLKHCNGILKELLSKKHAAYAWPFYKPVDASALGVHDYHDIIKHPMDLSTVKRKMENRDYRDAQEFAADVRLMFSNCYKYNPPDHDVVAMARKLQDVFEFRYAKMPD

[5] = molecular target: WT BET bromodomains (BD1 and BD2 of BRD2, BRD3 and BRD4); assay: competitive AlphaLISA (Bio-JQ1 displacement); format: binding, human; conditions: mean and SD of all somatic bromodomains; active enantiomer concentration
[6] = Intrinsic Clearance; conditions: mouse liver microsomes
[7] = molecular target: CCK1 (CCKA) (h) (Homo sapiens, UniProt P32238); assay: CEREP ExpresSProfile; conditions: read-out: Mean % of control specific binding (±SD)
CCK1 (CCKA) (h), sequence (P32238 whole entry): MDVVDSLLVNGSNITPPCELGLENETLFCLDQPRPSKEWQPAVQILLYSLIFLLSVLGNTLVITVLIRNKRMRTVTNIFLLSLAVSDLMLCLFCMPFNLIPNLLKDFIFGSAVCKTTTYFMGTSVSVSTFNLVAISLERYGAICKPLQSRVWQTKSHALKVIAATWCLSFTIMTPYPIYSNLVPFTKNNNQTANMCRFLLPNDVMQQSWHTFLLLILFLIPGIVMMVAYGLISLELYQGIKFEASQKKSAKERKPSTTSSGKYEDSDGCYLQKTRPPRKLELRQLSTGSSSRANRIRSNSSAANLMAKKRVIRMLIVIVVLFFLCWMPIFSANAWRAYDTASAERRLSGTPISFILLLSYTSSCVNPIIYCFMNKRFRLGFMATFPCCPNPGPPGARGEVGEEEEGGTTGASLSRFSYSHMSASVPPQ
From the text: (§1) Receptor Reference Compound Mean % of control specific
Receptor & Ion-Channel Screening
CEREP ExpresSProfile panel

[8] = WT Cell Cytotoxicity (CellTiter-Glo); conditions: human, MV4-11 cells (BET-dependent AML cell line)
[9] = tested on: MV4-11; assay: WT Cell Cytotoxicity (CellTiter-Glo); conditions: MV4-11 and HL-60
[10] = molecular target: dopamine transporter (h) (Homo sapiens, UniProt Q01959); assay: CEREP ExpresSProfile; conditions: read-out: Mean % of control specific binding (±SD)
dopamine transporter (h), sequence (Q01959 whole entry): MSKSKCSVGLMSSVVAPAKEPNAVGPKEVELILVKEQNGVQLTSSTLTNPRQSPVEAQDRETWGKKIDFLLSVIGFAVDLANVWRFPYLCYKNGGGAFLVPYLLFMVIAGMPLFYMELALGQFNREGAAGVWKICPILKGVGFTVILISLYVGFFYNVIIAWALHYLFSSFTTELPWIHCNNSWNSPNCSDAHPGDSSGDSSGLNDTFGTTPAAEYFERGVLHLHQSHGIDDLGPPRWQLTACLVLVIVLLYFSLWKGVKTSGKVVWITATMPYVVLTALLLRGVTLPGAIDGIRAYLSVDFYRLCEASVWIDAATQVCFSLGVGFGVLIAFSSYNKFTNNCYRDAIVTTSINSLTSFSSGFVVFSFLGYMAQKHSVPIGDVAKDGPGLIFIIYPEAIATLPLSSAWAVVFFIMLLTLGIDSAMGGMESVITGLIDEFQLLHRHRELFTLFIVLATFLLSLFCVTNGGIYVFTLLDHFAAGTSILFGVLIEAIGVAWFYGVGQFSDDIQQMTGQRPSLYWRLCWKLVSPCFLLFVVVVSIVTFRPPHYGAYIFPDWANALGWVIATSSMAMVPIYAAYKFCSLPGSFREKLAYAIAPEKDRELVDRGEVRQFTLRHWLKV
From the text: as §1
Receptor & Ion-Channel Screening
CEREP ExpresSProfile panel

[11] = molecular target: kappa (KOP) (Rattus norvegicus, UniProt P34975); assay: CEREP ExpresSProfile; conditions: read-out: Mean % of control specific binding (±SD)
kappa (KOP), sequence (P34975 whole entry): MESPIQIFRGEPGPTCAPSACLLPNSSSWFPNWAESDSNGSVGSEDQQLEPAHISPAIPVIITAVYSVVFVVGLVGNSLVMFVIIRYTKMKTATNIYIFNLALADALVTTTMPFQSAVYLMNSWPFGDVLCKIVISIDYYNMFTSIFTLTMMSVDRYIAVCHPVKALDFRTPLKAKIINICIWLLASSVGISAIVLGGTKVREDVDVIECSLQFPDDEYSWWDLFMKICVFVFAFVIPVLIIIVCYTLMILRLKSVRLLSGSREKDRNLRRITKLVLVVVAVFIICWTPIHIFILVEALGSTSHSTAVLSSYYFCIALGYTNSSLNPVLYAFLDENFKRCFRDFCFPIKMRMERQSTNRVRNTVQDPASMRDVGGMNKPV
From the text: as §1
Receptor & Ion-Channel Screening
CEREP ExpresSProfile panel

[12] = molecular target: MC4 (h) (Homo sapiens, UniProt P32245); assay: CEREP ExpresSProfile; conditions: read-out: Mean % of control specific binding (±SD)
MC4 (h), sequence (P32245 whole entry): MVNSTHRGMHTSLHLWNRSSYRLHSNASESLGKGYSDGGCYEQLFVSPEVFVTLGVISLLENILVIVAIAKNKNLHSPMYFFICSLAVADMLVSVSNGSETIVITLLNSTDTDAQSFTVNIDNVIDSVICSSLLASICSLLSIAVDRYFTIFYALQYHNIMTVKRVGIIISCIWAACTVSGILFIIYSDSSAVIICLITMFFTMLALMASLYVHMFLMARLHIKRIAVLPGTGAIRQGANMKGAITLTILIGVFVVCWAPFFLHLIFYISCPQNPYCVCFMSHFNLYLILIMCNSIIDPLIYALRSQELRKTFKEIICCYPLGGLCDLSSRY
From the text: as §1
Receptor & Ion-Channel Screening
CEREP ExpresSProfile panel

[13] = tested on: SKCa channel; assay: CEREP ExpresSProfile; format: binding; conditions: 1 µM
[14] = molecular target: B2 (h) (Homo sapiens, UniProt P30411); assay: CEREP ExpresSProfile; conditions: read-out: Mean % of control specific binding (±SD)
B2 (h), sequence (P30411 whole entry): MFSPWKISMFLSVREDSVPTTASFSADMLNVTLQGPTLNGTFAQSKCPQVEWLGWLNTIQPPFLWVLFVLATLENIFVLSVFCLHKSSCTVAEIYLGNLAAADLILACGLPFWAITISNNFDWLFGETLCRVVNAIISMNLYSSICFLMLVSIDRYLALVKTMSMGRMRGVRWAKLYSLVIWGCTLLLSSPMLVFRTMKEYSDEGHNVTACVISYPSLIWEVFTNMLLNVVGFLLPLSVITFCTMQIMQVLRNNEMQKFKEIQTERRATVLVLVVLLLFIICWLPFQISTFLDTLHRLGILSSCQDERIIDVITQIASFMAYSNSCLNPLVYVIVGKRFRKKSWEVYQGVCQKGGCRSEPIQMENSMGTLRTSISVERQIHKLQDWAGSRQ

[15] = tested on: GFP-BRD4 L/V constructs with NF-κB-RE/luc2P reporter in HEK293T cells; assay: NF-κB luciferase assay; format: cell-based, human; conditions: 1 µM, inhibiting either individual BD of BRD4
Procedure: To provide additional functional insights into the individual roles of BD1 vs. BD2 beyond chromatin binding, a luciferase assay was developed to monitor the expression of NF-κB target genes, inspired by work of Zou et al.[45] […] This luciferase induction was maintained with L/V mutations (but not L/A), consistent again with more WT-like functionality of L/V compared to L/A (Fig. 9A).
12 – NF-κB Luciferase Assay
Luciferase experiments were performed in human HEK293T cells seeded in a 24-well plate at 100 000 cells in […]
pBABE NF-κB-RE/luc2P reporter plasmid. Cells were transfected using Lipofectamine™ LTX (Invitrogen) with PLUS™ reagent, with each well receiving 0.5 µg of each plasmid, 2.5 µl LTX and 0.5 µl PLUS reagent. The next day cells were treated with compounds, giving a final concentration of 1 µM compound and 0.01% DMSO. 6 hours later cells were washed with PBS, lysed with passive lysis buffer (Promega) and stored at -20°C.
Luciferase activity was measured suing the Promega luciferase assay. In a black 384-well plate 3µl of clarified lysate was mixed with 15µl luciferase assay reagent and after 15 minutes luminescence was measured in a Pherastar FS. […]
NMR spectra were recorded on a Bruker 500 Ultrashield or a Bruker Ascend 400. […] High Resolution Mass Spectra (HRMS) were recorded on a Bruker micrOTOF. […]

[16] = molecular target: MT1 (ML1A) (h) (Homo sapiens, UniProt P48039); assay: CEREP ExpresSProfile; format: binding
MT1 (ML1A) (h), sequence (P48039 whole entry): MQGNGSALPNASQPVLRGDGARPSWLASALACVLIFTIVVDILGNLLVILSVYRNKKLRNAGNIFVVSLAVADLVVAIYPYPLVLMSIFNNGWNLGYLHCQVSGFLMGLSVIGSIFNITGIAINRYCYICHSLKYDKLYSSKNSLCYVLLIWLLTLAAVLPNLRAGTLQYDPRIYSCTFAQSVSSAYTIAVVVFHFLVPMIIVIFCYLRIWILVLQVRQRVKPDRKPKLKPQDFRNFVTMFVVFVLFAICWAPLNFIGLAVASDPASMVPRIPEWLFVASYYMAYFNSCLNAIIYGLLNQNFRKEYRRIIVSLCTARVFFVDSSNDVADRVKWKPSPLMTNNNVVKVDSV

[17] = molecular target: 5-HT1A (h) (Homo sapiens, UniProt P08908); assay: CEREP ExpresSProfile; conditions: read-out: Mean % of control specific binding (±SD)
5-HT1A (h), sequence (P08908 whole entry): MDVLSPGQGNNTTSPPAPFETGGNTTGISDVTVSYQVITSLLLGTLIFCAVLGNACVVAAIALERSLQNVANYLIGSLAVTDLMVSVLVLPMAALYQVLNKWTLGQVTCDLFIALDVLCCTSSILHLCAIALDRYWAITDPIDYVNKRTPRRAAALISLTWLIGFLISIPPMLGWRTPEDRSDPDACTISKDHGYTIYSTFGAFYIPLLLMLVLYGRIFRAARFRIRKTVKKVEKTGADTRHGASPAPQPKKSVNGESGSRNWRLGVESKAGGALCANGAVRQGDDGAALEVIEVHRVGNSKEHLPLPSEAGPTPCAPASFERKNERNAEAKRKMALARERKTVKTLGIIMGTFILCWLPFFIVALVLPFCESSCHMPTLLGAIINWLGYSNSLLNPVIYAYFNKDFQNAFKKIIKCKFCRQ

[18] = molecular target: CXCR2 (IL-8B) (h) (Homo sapiens, UniProt P25025); assay: CEREP ExpresSProfile; conditions: read-out: Mean % of control specific binding (±SD)
CXCR2 (IL-8B) (h), sequence (P25025 whole entry): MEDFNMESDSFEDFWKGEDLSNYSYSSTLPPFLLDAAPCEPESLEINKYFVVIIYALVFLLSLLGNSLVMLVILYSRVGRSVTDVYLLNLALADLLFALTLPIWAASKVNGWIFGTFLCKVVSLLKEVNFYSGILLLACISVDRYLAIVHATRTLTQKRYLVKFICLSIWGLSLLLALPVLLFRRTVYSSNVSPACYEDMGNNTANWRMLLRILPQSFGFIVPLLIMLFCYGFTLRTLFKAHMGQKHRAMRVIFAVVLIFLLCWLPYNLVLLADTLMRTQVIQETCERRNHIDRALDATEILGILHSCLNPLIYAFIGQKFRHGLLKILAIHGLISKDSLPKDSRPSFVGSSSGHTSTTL
From the text: as §1
Receptor & Ion-Channel Screening
CEREP ExpresSProfile panel

[19] = WT Cell Cytotoxicity (CellTiter-Glo); conditions: human, HL-60 cells (BET-dependent AML cell line)
[20] = tested on: 55 receptors, transporters and ion channels; assay: receptor, transporter and ion channel screen; format: binding; conditions: 1 μM, whole panel with the exception of MT1
[21] = molecular target: A1 (h) (Homo sapiens, UniProt P30542); assay: CEREP ExpresSProfile; conditions: read-out: Mean % of control specific binding (±SD)
A1 (h), sequence (P30542 whole entry): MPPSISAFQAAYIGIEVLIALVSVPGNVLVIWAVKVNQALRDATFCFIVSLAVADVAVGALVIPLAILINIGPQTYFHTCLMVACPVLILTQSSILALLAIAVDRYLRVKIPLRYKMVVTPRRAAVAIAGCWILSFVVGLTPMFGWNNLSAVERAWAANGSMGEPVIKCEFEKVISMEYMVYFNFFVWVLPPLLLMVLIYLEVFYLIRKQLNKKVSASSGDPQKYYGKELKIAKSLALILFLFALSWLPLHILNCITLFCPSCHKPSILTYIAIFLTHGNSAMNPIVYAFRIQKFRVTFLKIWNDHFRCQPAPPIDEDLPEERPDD
From the text: as §1
Receptor & Ion-Channel Screening
CEREP ExpresSProfile panel

[22] = molecular target: delta (DOP) (h) (Homo sapiens, UniProt P41143); assay: CEREP ExpresSProfile; conditions: read-out: Mean % of control specific binding (±SD)
delta (DOP) (h), sequence (P41143 whole entry): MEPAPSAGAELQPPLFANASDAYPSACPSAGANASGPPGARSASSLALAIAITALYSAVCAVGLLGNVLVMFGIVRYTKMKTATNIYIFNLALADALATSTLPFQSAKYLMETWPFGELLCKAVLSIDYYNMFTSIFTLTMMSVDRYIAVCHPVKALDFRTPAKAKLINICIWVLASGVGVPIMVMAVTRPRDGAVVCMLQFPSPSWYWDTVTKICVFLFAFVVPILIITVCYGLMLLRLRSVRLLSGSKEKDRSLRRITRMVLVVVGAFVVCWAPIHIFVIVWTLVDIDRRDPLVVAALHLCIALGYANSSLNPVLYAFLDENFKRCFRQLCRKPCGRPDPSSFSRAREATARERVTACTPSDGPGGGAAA
From the text: as §1
Receptor & Ion-Channel Screening
CEREP ExpresSProfile panel

BRD3 BD1 L/V, sequence (Q15059 24-144 L70V limits assumed): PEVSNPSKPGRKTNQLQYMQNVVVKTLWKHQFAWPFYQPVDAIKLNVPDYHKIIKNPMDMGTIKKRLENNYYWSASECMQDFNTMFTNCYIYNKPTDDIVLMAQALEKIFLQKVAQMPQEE

CC[C@@H](C(=O)OC)[C@@H]1N=C(c2ccc(Cl)cc2)c2ccc(OC)cc2-n2c(C)nnc21 (racemic) [Compound 8]
IC50 [1]: 126 nM | AlphaLISA pIC50 ± SD Δ ([2]; L/V minus WT): 1.4 ± 0.2 | AlphaLISA pIC50 ± SD L/V ([2]; mean and SD of all somatic bromodomains, active enantiomer concentration): 6.8 ± 0.2 | IC50 [3]: 200 nM | IC50 [4]: 200 nM | AlphaLISA pIC50 ± SD WT [5]: 5.5 ± 0.2 | CL int [6]: 4.1 ml min^–1 g^–1

COC(=O)[C@H](C)[C@@H]1N=C(c2ccc(Cl)cc2)c2ccc(OC)cc2-n2c(C)nnc21 [(2R,3S)-7]
remaining activity at 1 µM [7]: 90% | CC50 at 48 h [8]: 2510 nM | cytotoxicity [9]: no cytotoxicity below 1 μM | remaining activity at 1 µM [10]: 84% | remaining activity at 1 µM [11]: 96% | remaining activity at 1 µM [12]: 89% | Mean % of control specific binding (±SD) [13]: 103 (10) % | remaining activity at 1 µM [14]: 98% | effect on NF-κB signalling [15]: strongly impacted on NF-κB signalling | inhibition at 1 µM [16]: 77% | remaining activity at 1 µM ([16]; read-out: Mean % of control specific binding (±SD)): 23% | remaining activity at 1 µM [17]: 104% | remaining activity at 1 µM [18]: 96% | CC50 at 48 h [19]: > 5010 nM | inhibition [20]: no more than 20% | remaining activity at 1 µM [21]: 100% | remaining activity at 1 µM [22]: 100%

— article PMC5909127, “Optimization of a “bump-and-hole” approach to allele-selective BET bromodomain inhibition” (Chemical Science, 2018)
